Literature values, collected in patent publication US20110088590A1, “METHOD FOR TREATING WOOD” (priority 2005, published 2011).

Tested on: honey bees and other beneficial insects, fish, aquatic insects, crayfish, and shrimp
Details: for many species

## CC1(C)C(C=C(Cl)Cl)C1C(=O)OCc1cccc(Oc2ccccc2)c1 (stereo not shown) [Permethrin]
  lethal concentration: less than one
